Results on seven molecules are retold here after patent US12667122B2, “Taste-modulation of cooling agents in beverages” (priority 2019, dated 2026).

Data set [1] is described as follows: Beverage swallowing test: duration of cooling in throat and chest and adverse taste ranking. The conditions noted are these: for Onset of cooling action in the chest (in words): in vivo; for Duration of effects (in words): compared with the shorter DIPA analogs; for Duration Cool: 20 mg in 50 mL (0.4 mg/mL); for Min. (cooling): 50 mL beverage. Format: in vivo, human. From the text: DIPA compounds dissolved in water have an unpleasant, bitter, and metallic taste. The goal of the experiments was to find an adjunct that would make the DIPA beverage palatable. The anatomic sites for bitterness (adverse taste) are primarily on the dorsal surface of the posterior one-third of the tongue. The coolness and refreshment areas are on the hypopharynx and the upper one-third of the esophagus (FIG. 1). These are two different anatomic sites. Sensations of coolness from the oral cavity and oropharynx are not the primary targets. The esophagus is in the center of the thorax. When its lumen feels “cool,” this is like turning on the central air conditioner for the body. The goal of the beverage is to turn on this central air conditioning for at least 30 min and preferably longer without adverse tastes in the oral cavity. That is, the goal is to produce cool in the center of the chest but without bitter taste. A standard procedure was set. The cooling agent at various concentrations was made up to 50 mL with a liquid in a plastic cup (Flak Tek, Inc. South Carolina), beaker, whiskey glass, or bottle. For example, the final concentration of the coolant in the test solution may range from 0.1 to 0.5 mg/mL. The temperature of the liquid was measured and then swallowed. For example, 50 mL could be swallowed in five gulps or sipped. The duration of cooling in the throat and chest was recorded at various intervals until the cooling disappeared. The ranking of adverse taste was on a scale of 0 (no adverse taste), 1 (mild taste), 2 (moderate taste), or 3 (adverse taste). The value was for at least three trials per beverage.
Examples of test procedures and results. The usual method was to prepare a 2-mL vial containing a DIPA dissolved in water. The contents of the vial were added to beverages such as beer, soda drinks, fruit juice, coffee, tea, or water. A taste-modulating adjunct such as a sweetener can be in the 2-mL vial or present in the beverage. The drink is gulped at about 5 mL per swallow. The time and temperatures are noted. The onset of coolness in the center of the upper chest usually occurs within 3 min. For active compounds, this effect was pleasant and, depending on dose, could last for 10 minutes, an hour, or more. Gulping the liquid was important. When held in the mouth, the drink is cool and may have taste, but cooling in the center of the chest is reduced. Thus, sipping is not the correct method of drinking. Using these methods, a bottle of beer (e.g., ˜330 mL containing 33 mg of DIPA-1-9), if drank in a leisurely setting for one hour, can provide comfortable body cooling for 3 hr. Similarly, a smaller bottle of carbonated soda water (e.g., 200 mL), containing 15 mg of DIPA-1-6 produced immediate cooling relief for 30 min for individuals, for example, taking a break from playing tennis in the heat. For pharmaceutical uses, a tinted bottle with 20 mg of DIPA-1-9 in 50 mL of water with Splenda's Monk Fruit dissolved in it would be palatable and relieve the discomforts of indigestion.

Assay in data set [2]: as above
Format: in vivo, human. The conditions noted are these: for Duration of Cooling: 0.4 mg/mL in Monk fruit sweetened water (1 pack Splenda Monk Fruit per 100 mL), 30 mL, throat; for Dose sufficient for a robust, immediate cooling response: in 15 mL.

For data set [3], the target named is T1, TRPV1 (Homo sapiens, UniProt Q8NER1).
T1 construct: expressed in transfected cells
T1 sequence (Q8NER1 whole entry): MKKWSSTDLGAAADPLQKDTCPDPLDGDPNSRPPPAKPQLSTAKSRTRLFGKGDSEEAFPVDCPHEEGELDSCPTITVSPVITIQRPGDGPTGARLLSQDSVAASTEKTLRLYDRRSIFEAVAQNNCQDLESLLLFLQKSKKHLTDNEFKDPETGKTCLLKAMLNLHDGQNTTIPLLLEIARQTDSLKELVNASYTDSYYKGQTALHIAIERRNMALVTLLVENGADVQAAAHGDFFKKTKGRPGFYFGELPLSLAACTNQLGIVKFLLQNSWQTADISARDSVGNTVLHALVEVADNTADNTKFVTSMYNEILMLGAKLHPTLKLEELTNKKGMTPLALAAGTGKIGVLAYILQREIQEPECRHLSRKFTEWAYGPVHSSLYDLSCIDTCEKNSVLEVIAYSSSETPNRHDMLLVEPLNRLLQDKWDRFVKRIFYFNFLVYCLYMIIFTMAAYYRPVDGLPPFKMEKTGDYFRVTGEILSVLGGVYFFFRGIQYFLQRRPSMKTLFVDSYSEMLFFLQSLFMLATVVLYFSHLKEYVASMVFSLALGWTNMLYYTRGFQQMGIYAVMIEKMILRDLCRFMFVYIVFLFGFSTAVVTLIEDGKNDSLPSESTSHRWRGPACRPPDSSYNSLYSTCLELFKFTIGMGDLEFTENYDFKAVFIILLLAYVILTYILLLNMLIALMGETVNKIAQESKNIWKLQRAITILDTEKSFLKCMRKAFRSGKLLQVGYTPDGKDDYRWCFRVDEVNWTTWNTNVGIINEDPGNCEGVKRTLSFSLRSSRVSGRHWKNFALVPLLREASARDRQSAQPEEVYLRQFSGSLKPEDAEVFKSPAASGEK
Nature of the data set: Activation of TRPV1-transfected cells. Format: cell-based.

Data set [4] deals with T2, TRPA1 (Homo sapiens, UniProt O75762).
T2 construct: expressed in transfected cells
T2 sequence (O75762 whole entry): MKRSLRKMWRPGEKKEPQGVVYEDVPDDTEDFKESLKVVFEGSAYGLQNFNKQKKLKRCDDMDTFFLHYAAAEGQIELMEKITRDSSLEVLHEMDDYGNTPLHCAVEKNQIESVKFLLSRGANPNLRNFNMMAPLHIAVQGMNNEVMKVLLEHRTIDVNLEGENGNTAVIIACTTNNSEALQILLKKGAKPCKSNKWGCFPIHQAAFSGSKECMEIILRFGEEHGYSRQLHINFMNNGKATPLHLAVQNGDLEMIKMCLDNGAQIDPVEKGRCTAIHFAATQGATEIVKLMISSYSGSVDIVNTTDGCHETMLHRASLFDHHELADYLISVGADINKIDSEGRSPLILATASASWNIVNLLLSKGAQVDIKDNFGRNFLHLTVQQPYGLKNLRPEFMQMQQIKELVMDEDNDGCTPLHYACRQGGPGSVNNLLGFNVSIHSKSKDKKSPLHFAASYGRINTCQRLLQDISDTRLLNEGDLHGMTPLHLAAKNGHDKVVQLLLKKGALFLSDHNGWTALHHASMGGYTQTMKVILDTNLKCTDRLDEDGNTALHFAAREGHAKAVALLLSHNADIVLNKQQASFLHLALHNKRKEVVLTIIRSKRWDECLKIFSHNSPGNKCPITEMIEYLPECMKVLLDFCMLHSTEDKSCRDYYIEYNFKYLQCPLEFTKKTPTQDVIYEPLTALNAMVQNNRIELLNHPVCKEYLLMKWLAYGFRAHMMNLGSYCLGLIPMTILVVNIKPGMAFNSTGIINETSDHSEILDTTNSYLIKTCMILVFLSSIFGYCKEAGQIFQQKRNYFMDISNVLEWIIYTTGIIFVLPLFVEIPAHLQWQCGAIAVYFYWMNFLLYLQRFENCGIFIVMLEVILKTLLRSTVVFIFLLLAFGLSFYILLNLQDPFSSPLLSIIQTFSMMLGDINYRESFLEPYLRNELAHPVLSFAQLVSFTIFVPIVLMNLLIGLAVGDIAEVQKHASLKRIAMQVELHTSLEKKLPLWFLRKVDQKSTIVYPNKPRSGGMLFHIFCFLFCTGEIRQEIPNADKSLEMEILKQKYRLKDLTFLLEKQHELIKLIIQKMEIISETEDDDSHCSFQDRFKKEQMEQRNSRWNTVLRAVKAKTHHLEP
Nature of the data set: Activation of TRPA1-transfected cells. The class given is cell-based.

A short description of data set [5]: DIPA cooling on the effects of a hotpot meal. Format: in vivo, human. As to conditions: 0.5 mg/mL in water containing 1 packet of Splenda's Monk Fruit sweetener per 200 mL. The source says: DIPA Cooling on the effects of a “hotpot” meal. A hotpot meal has been prevalent in central China (Sichuan province) for over a thousand years and has become very popular in many parts of Asia today. It is a family affair with a boiling pot of broth in the middle of the table, and everyone cooks food in the broth. Exceptionally spicy chili pepper is in the soup, and even in summer, the air-conditioning is off, so everybody sweats. The general idea is to get so hot that one becomes desensitized to the hot weather. […] Another method for relief from the hotpot is to incorporate it into a beer at DIPA-1-9 0.1 mg/ml, and commercialize it as “HotPot Beer.”

Data set [6] in a line: Water solubility of 1-dialkylphosphorylalkanes. The class given is physicochemical. From the text: The DIPA compounds are colorless liquids with a density less than water. These structures differ from those described by Rowsell and Spring U.S. Pat. No. 4,070,496 because '496 structures have their “head” (phosphine oxide group) covered by larger, more lipophilic groups. […] The applicant synthesized these analogs (which are achiral, by contrast to the structures of '496, which are >95% chiral). […] This increased water-solubility is striking (Table 3). Additional details on the bioactivity and pharmacology of these DIPA can be found in the paper by Yang et al., [(2017). A novel TRPM8 agonist relieves dry eye discomfort. BMC Ophthalmology, 17(1). https://doi.org/10.1186/s12886-017-0495-2], incorporated herein by reference.

In data set [7] the target is TRPM8 receptor (Homo sapiens, UniProt Q7Z2W7). The data set can be described thus: TRPM8 receptor agonist activity. Format: cell-based.
Chain of TRPM8 receptor (Q7Z2W7 whole entry): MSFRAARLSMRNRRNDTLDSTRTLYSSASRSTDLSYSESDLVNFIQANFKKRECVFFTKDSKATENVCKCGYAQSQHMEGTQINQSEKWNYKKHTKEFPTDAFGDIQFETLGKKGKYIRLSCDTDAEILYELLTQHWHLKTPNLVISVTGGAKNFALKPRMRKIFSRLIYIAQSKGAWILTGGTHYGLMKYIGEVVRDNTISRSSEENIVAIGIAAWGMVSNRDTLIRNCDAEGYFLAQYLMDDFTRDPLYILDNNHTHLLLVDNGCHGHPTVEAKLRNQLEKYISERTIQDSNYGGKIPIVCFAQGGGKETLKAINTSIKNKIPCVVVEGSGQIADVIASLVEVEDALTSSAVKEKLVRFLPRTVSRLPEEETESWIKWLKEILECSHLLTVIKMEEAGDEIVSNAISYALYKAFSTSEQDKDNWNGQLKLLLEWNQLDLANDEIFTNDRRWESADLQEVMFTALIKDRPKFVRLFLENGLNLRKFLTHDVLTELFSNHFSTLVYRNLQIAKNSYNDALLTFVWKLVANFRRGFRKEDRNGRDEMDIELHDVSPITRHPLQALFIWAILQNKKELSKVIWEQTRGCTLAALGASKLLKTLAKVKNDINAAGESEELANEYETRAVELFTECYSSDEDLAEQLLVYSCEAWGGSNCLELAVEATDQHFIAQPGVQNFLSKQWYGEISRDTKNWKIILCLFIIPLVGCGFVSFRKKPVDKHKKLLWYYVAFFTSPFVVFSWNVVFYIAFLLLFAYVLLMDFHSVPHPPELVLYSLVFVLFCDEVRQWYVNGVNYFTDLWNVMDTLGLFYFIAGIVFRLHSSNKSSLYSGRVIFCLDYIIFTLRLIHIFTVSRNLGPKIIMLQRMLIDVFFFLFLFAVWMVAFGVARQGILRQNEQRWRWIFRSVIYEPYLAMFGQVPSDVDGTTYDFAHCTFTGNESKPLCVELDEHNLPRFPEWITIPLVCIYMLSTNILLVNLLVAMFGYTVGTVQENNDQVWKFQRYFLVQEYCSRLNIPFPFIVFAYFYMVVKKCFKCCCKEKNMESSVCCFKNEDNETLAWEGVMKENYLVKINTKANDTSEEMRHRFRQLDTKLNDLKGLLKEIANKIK

Where only a bound is given, the exact number is not on record here.

Consider `CCCCCP(=O)(C(C)C)C(C)C` [DIPA-1-5, 1-Di(isopropyl)-phosphinoyl-pentane], for which the “Onset of cooling action in the chest (in words)” value (shortened to “Onset of cooling action”) in data set [1] is “immediate”. Besides, in data set [2], the “Duration of Cooling” value is recorded as 12 min and the “Dose sufficient for a robust, immediate cooling response” value turned out to be 10 mg.

Take `CCCCCCP(=O)(C(C)C)C(C)C` [DIPA-1-6, 1-Di(isopropyl)-phosphinoyl-hexane]: in data set [1] (200 mL carbonated soda water containing 15 mg), the “Duration of immediate cooling relief” value was determined as 30 min. Besides, the “Onset of cooling action” value in data set [1] is “immediate”. In addition, in data set [2], the “Duration of Cooling” value was 20 min and the “Dose sufficient for a robust, immediate cooling response” value amounted to 10 mg.

As to `CCCCCCCP(=O)(C(C)C)C(C)C` [DIPA-1-7, 1-Di(isopropyl)-phosphinoyl-heptane], the “Onset of cooling action” value in data set [1] was “immediate”. Moreover, the “Duration of Cooling” value in data set [2] turned out to be 36 min.

Take `CCCCCCCCP(=O)(C(C)C)C(C)C` [DIPA-1-8, 1-Di(isopropyl)-phosphinoyl-octane]: in data set [1], the “Duration of effects (in words)” value was “more long-lasting”. In addition, the Effective dose in data set [1] (in a whiskey glass) amounted to 15 mg. Also, the “Duration of Cooling” value in data set [2] is 43 min.

For the molecule `CCCCCCCCCP(=O)(C(C)C)C(C)C` [DIPA-1-9, 1-Diisopropyl-phosphinoyl-nonane], the Duration worked out at 34 min in data set [1] (0.4 mg/L, apple juice (Martinelli, Mott's), 21 °C); 35 min in data set [1] (0.4 mg/L, grape juice (Welch Grape), 20 °C); 40 min in data set [1] (0.4 mg/L, guarana juice soda (Guarana Antarctica), 10 °C); 40 min in data set [1] (0.4 mg/L, orange juice (fresh-squeezed), 8 °C); 25 min in data set [1] (0.4 mg/L, sweetened soda (Coca-Cola), 7 °C); 36 min in data set [1] (0.4 mg/L, wine (Moscato d'Asti), 8 °C). In addition, the Duration in data set [1] (0.4 mg/mL, hot cappuccino drink (3 Coracoes, Brazil), 70 °C) was determined as 30 min; in data set [1] (0.4 mg/mL, hot coffee + herbal sweetener (117 + Stevia extracts), 75 °C), 36 min; in data set [1] (0.4 mg/mL, hot coffee cream/sugar (117, Nescafe), 65 °C), 35 min; in data set [1] (0.4 mg/mL, hot coffee-no cream or sugar (117, Nescafe), 62 °C), 30 min; in data set [1] (0.4 mg/mL, hot water + monk fruit (Splenda monk fruit), 50 °C), 42 min; in data set [1] (0.4 mg/mL, hot water + monk fruit (Splenda monk fruit), 70 °C), 38 min. Also, the Duration in data set [1] (0.4 mg/mL, iced cold cappuccino (Starbuck's frappaccino), 8 °C) was 25 min; in data set [1] (0.4 mg/mL, red tea (Peach-Ceylon, no sweetener), 46 °C) it was 31 min; in data set [1] (0.4 mg/mL, sweetened tea (Ito En + 10% sucrose), 10 °C), 38 min; in data set [1] (0.4 mg/mL, sweetened tea (Ito En + Truvia or Monk's Fruit), 10 °C) it was 40 min; in data set [1] (0.4 mg/mL, unsweetened green tea (Ito En), 10 °C) it was 35 min; in data set [1] (Sake (Japanese rice wine), 10 °C) it was 32 min. Further, the Duration in data set [1] (beer (Heineken), 7 °C) is 44 min; in data set [1] (ginger ale (Canada Dry), 11 °C), 25 min; in data set [1] (ginger beer, juice (Q beer, Suja), 9 °C), 40 min; in data set [1] (non-alcoholic beer (Heineken 00), 7 °C) it was 40 min; in data set [1] (tonic water with quinine (Schweppes), 7 °C), 42 min; in data set [1] (wheat ale (Blue Moon), 9 °C), 35 min. The “Duration Cool” value in data set [1] (carbonated water (Perrier, La Croix), 8 °C) came out at 45 min; in data set [1] (water (Crystal Geyser), 10 °C), 48 min; in data set [1] (water (Crystal Geyser), 25 °C), 42 min; in data set [1] (water (Crystal Geyser), 74 °C), 45 min; in data set [1] (water + herbal sweetener (+Stevia leaf), 8 °C), 40 min; in data set [1] (water + herbal sweetener (+Stevia leaf), 22 °C), 35 min. Moreover, the “Duration Cool” value in data set [1] (water + herbal sweetener (+Stevia leaf), 72 °C) is listed as 32 min; in data set [1] (water + synthetic sweetener (Neotame at 0.2 mg/mL), 10 °C), 40 min. Moreover, the “Min. (cooling)” value was found to be 12 min in data set [1] (0.2 mg/mL + Stevia, 20 °C); 35 min in data set [1] (0.4 mg/mL + Stevia, 20 °C); 42 min in data set [1] (0.4 mg/mL + Sucrose (10%), 20 °C); 55 min in data set [1] (0.8 mg/mL + Stevia, 20 °C); 39 min in data set [1] (0.8 mg/mL + Sucrose (10%), 20 °C); 45 min in data set [1] (0.8 mg/mL + Sucrose (15%), 20 °C). Also, the “Duration of comfortable body cooling” value in data set [1] (bottle of beer ~330 mL containing 33 mg, drunk over one hour) stood at 3 h. Moreover, the “Duration of effects (in words)” value in data set [1] is on record as “more long-lasting”. In data set [1] (in a standard beer bottle), this molecule returned an Effective dose of 33 mg. Further, the “Activation of TRPV1-transfected cells” value in data set [3] is given as “does not activate”. For the same molecule, the “Activation of TRPA1-transfected cells” value in data set [4] is “does not activate”. Moreover, the Onset of relief result in data set [5] was “within several minutes”. The “Relief after a hotpot meal (in words)” value in data set [5] is “relieves the pain in the oral cavity and throat”. Moreover, in data set [2], the “Duration of Cooling” value is recorded as 48 min.

Molecule `CCCCCCCCCCP(=O)(C(C)C)C(C)C` [DIPA-1-10] displayed a Water solubility in data set [6] of less than 3 mg/mL. Besides, in data set [7], the EC50 entry was “inactive”. The “Duration of Cooling” value in data set [2] was determined as 0 min.

The molecule `CCCCCP(=O)(C(C)CC)C(C)CC` (centres unmarked) [di-sec-butyl- pentane] gave a Water solubility in data set [6] of 22 mg/mL.
